Source: BigSolDB 2.1

S=c1[nH]c2ccccc2s1
Details | solubility (mole fraction)
in 1,4-dioxane, 285.65 K | 0.0438
in 1,4-dioxane, 288.15 K | 0.0466
in 1,4-dioxane, 290.65 K | 0.0502
in 1,4-dioxane, 293.15 K | 0.0536
in 1,4-dioxane, 295.65 K | 0.0574
in 1,4-dioxane, 298.15 K | 0.0613
in 1,4-dioxane, 300.65 K | 0.0652
in 1,4-dioxane, 303.15 K | 0.0698
in 1,4-dioxane, 305.65 K | 0.0742
in 1,4-dioxane, 308.15 K | 0.079
in 1,4-dioxane, 310.65 K | 0.0835
in 1,4-dioxane, 313.15 K | 0.0893
in 1,4-dioxane, 315.65 K | 0.0943
in 1,4-dioxane, 318.15 K | 0.101
in 2-butanone, 273.15 K | 0.0695
in 2-butanone, 275.65 K | 0.0722
in 2-butanone, 278.15 K | 0.0752
in 2-butanone, 280.65 K | 0.0778
in 2-butanone, 283.15 K | 0.0807
in 2-butanone, 285.65 K | 0.0837
in 2-butanone, 288.15 K | 0.0867
in 2-butanone, 290.65 K | 0.0902
in 2-butanone, 293.15 K | 0.093
in 2-butanone, 295.65 K | 0.0967
in 2-butanone, 298.15 K | 0.0995
in 2-butanone, 300.65 K | 0.103
in 2-butanone, 303.15 K | 0.106
in 2-butanone, 305.65 K | 0.11
in 2-butanone, 308.15 K | 0.113
in 2-butanone, 310.65 K | 0.116
in 2-butanone, 313.15 K | 0.12
in 2-butanone, 315.65 K | 0.124
in 2-butanone, 318.15 K | 0.128
in acetonitrile, 273.15 K | 0.00426
in acetonitrile, 275.65 K | 0.00467
in acetonitrile, 278.15 K | 0.00507
in acetonitrile, 280.65 K | 0.00553
in acetonitrile, 283.15 K | 0.00597
in acetonitrile, 285.65 K | 0.00647
in acetonitrile, 288.15 K | 0.00705
in acetonitrile, 290.65 K | 0.00762
in acetonitrile, 293.15 K | 0.00819
in acetonitrile, 295.65 K | 0.00885
in acetonitrile, 298.15 K | 0.00956
in acetonitrile, 300.65 K | 0.0102
in acetonitrile, 303.15 K | 0.011
in acetonitrile, 305.65 K | 0.0118
in acetonitrile, 308.15 K | 0.0127
in acetonitrile, 310.65 K | 0.0137
in acetonitrile, 313.15 K | 0.0146
in acetonitrile, 315.65 K | 0.0155
in acetonitrile, 318.15 K | 0.0167
in chloroform, 273.15 K | 0.00683
in chloroform, 275.65 K | 0.0072
in chloroform, 278.15 K | 0.00766
in chloroform, 280.65 K | 0.00816
in chloroform, 283.15 K | 0.00865
in chloroform, 285.65 K | 0.00922
in chloroform, 288.15 K | 0.00972
in chloroform, 290.65 K | 0.0104
in chloroform, 293.15 K | 0.0109
in chloroform, 295.65 K | 0.0115
in chloroform, 298.15 K | 0.0121
in chloroform, 300.65 K | 0.0128
in chloroform, 303.15 K | 0.0135
in chloroform, 305.65 K | 0.0142
in chloroform, 308.15 K | 0.0149
in chloroform, 310.65 K | 0.0156
in chloroform, 313.15 K | 0.0165
in chloroform, 315.65 K | 0.0172
in chloroform, 318.15 K | 0.0182
in ethyl acetate, 273.15 K | 0.0274
in ethyl acetate, 275.65 K | 0.0286
in ethyl acetate, 278.15 K | 0.0297
in ethyl acetate, 280.65 K | 0.0309
in ethyl acetate, 283.15 K | 0.0323
in ethyl acetate, 285.65 K | 0.0336
in ethyl acetate, 288.15 K | 0.0348
in ethyl acetate, 290.65 K | 0.0361
in ethyl acetate, 293.15 K | 0.0374
in ethyl acetate, 295.65 K | 0.0389
in ethyl acetate, 298.15 K | 0.0403
in ethyl acetate, 300.65 K | 0.0419
in ethyl acetate, 303.15 K | 0.0434
in ethyl acetate, 305.65 K | 0.0448
in ethyl acetate, 308.15 K | 0.0465
in ethyl acetate, 310.65 K | 0.0482
in ethyl acetate, 313.15 K | 0.0499
in ethyl acetate, 315.65 K | 0.0513
in ethyl acetate, 318.15 K | 0.0532
in isobutanol, 273.15 K | 0.0101
in isobutanol, 275.65 K | 0.011
in isobutanol, 278.15 K | 0.012
in isobutanol, 280.65 K | 0.0132
in isobutanol, 283.15 K | 0.0143
in isobutanol, 285.65 K | 0.0155
in isobutanol, 288.15 K | 0.0169
in isobutanol, 290.65 K | 0.0184
in isobutanol, 293.15 K | 0.0199
in isobutanol, 295.65 K | 0.0215
in isobutanol, 298.15 K | 0.0231
in isobutanol, 300.65 K | 0.0252
in isobutanol, 303.15 K | 0.027
in isobutanol, 305.65 K | 0.0292
in isobutanol, 308.15 K | 0.0311
in isobutanol, 310.65 K | 0.0336
in isobutanol, 313.15 K | 0.0361
in isobutanol, 315.65 K | 0.0386
in isobutanol, 318.15 K | 0.0411
in isopropanol, 273.15 K | 0.00949
in isopropanol, 275.65 K | 0.0103
in isopropanol, 278.15 K | 0.0111
in isopropanol, 280.65 K | 0.0122
in isopropanol, 283.15 K | 0.0134
in isopropanol, 285.65 K | 0.0148
in isopropanol, 288.15 K | 0.0161
in isopropanol, 290.65 K | 0.0175
in isopropanol, 293.15 K | 0.0192
in isopropanol, 295.65 K | 0.0208
in isopropanol, 298.15 K | 0.0224
in isopropanol, 300.65 K | 0.0242
in isopropanol, 303.15 K | 0.0261
in isopropanol, 305.65 K | 0.0282
in isopropanol, 308.15 K | 0.0305
in isopropanol, 310.65 K | 0.0328
in isopropanol, 313.15 K | 0.0352
in isopropanol, 315.65 K | 0.0378
in isopropanol, 318.15 K | 0.0408
in methanol, 273.15 K | 0.00733
in methanol, 275.65 K | 0.00795
in methanol, 278.15 K | 0.00868
in methanol, 280.65 K | 0.00946
in methanol, 283.15 K | 0.0103
in methanol, 285.65 K | 0.0111
in methanol, 288.15 K | 0.0121
in methanol, 290.65 K | 0.0131
in methanol, 293.15 K | 0.0141
in methanol, 295.65 K | 0.0153
in methanol, 298.15 K | 0.0164
in methanol, 300.65 K | 0.0178
in methanol, 303.15 K | 0.0192
in methanol, 305.65 K | 0.0205
in methanol, 308.15 K | 0.022
in methanol, 310.65 K | 0.0235
in methanol, 313.15 K | 0.0252
in methanol, 315.65 K | 0.0269
in methanol, 318.15 K | 0.0289
in n-butanol, 273.15 K | 0.0198
in n-butanol, 275.65 K | 0.0211
in n-butanol, 278.15 K | 0.0224
in n-butanol, 280.65 K | 0.0238
in n-butanol, 283.15 K | 0.0252
in n-butanol, 285.65 K | 0.0265
in n-butanol, 288.15 K | 0.0281
in n-butanol, 290.65 K | 0.0299
in n-butanol, 293.15 K | 0.0314
in n-butanol, 295.65 K | 0.0332
in n-butanol, 298.15 K | 0.0349
in n-butanol, 300.65 K | 0.0368
in n-butanol, 303.15 K | 0.0386
in n-butanol, 305.65 K | 0.0405
in n-butanol, 308.15 K | 0.0425
in n-butanol, 310.65 K | 0.045
in n-butanol, 313.15 K | 0.0468
in n-butanol, 315.65 K | 0.0489
in n-butanol, 318.15 K | 0.0513
in n-propanol, 273.15 K | 0.015
in n-propanol, 275.65 K | 0.016
in n-propanol, 278.15 K | 0.017
in n-propanol, 280.65 K | 0.0181
in n-propanol, 283.15 K | 0.0194
in n-propanol, 285.65 K | 0.0205
in n-propanol, 288.15 K | 0.0219
in n-propanol, 290.65 K | 0.0232
in n-propanol, 293.15 K | 0.0245
in n-propanol, 295.65 K | 0.026
in n-propanol, 298.15 K | 0.0277
in n-propanol, 300.65 K | 0.029
in n-propanol, 303.15 K | 0.0309
in n-propanol, 305.65 K | 0.0324
in n-propanol, 308.15 K | 0.0342
in n-propanol, 310.65 K | 0.036
in n-propanol, 313.15 K | 0.038
in n-propanol, 315.65 K | 0.04
in n-propanol, 318.15 K | 0.0421
in toluene, 273.15 K | 0.00192
in toluene, 275.65 K | 0.00205
in toluene, 278.15 K | 0.0022
in toluene, 280.65 K | 0.00236
in toluene, 283.15 K | 0.00254
in toluene, 285.65 K | 0.00272
in toluene, 288.15 K | 0.0029
in toluene, 290.65 K | 0.0031
in toluene, 293.15 K | 0.00333
in toluene, 295.65 K | 0.00354
in toluene, 298.15 K | 0.00378
in toluene, 300.65 K | 0.00405
in toluene, 303.15 K | 0.00427
in toluene, 305.65 K | 0.00454
in toluene, 308.15 K | 0.00482
in toluene, 310.65 K | 0.0051
in toluene, 313.15 K | 0.00544
in toluene, 315.65 K | 0.00572
in toluene, 318.15 K | 0.00608
